Literature values, collected in US8507698B2, “Artemisinin derivatives for the treatment of melanoma” (Lachifarma S.R.L. Laboratorio Chimico Farmaceutico Salentino, priority 2007, dated 2013).

Tested on: cell line of oral cancer (YD-10B)
Conditions: read-out: CI50 (the source's name)

CC(=O)O[C@H]1C(=O)[C@@]2(C)[C@H]([C@H](OC(=O)c3ccccc3)[C@]3(O)C[C@H](OC(=O)[C@H](O)[C@@H](NC(=O)c4ccccc4)c4ccccc4)C(C)=C1C3(C)C)[C@]1(OC(C)=O)CO[C@@H]1C[C@@H]2O [paclitaxel]
IC50: 13.1 µM
